Reference: US20250275953A1, “VODOBATINIB FOR REDUCING PROGRESSION OF PARKINSON'S DISEASE” (Sun Pharma Advanced Research Company Ltd., priority 2022, published 2025)
pIC50: −log10 of the molar value. Like-named read-outs stand apart in the source and are kept apart here.

Experiments:
[1] = CSF pharmacokinetics on Day 7, healthy volunteers; assay type: in vivo, human; settings: for CSF AUC0-24 AM / CSF AUC0-24 GM / CSF AUC0-24 Median / CSF Cmax AM / CSF Cmax GM / CSF Cmax Median / Tmax: Day 7, CSF, healthy volunteers; for Cmax, CSF/IC50: IC50 0.9 nM; for Tmax: male, human, CSF, oral
Method: CSF Assessment: On the morning of Day 7, local anesthetic (e.g., lidocaine 2% with epinephrine) was administered subcutaneously at the site of lumbar puncture. An indwelling intrathecal catheter was inserted at the lumbar region (L3-L5) by a trained and experienced anesthesiologist (i.e., using an epidural tray, 17G or 20/22G Tuohy needle and catheter over needle system). A CSF sample was collected for safety labs (i.e., cell count, glucose, protein). Serial CSF samples were then collected through the spinal catheter and tubing connected to a fractional collection system (i.e., peristaltic pump). The CSF samples (8 mL) were collected at a flow rate of 0.5 mL/min over a 16-minute period at pre-dose, and at 0.5 h, 1.0 h, 1.5 h, 2 h, 2.5 h, 3 h, 4 h, 6 h, 8 h, 12 h and 24 h post-dose. The first 2 mL of CSF was discarded, and the 6 mL remainder was used for the PK study.
The plasma and CSF samples were analyzed, by validated LC/MS-MS methods. PK analysis was conducted based on PK/PP Population: Cmax, AUC0-t, AUC0-24, AUC0-∞, Tmax, Cavg, CL/F, Cmin, t1/2, Kel, Vd (V/F; Vd/F), and Vss/F. Model-independent plasma PK parameters (Cmax, Tmax, t1/2, AUC0-t, AUC0-24, AUC0-∞, Cavg, CL/F, Vss/F, Vd/F), after the first dose (Day 1) and last dose (Day 7), Cmin on Days 2-7) was listed by subject and summarized by study cohort. In addition to the descriptive statistics listed above, geometric means was reported for the pivotal PK endpoints (CL/F, Vss/F, Vd/F, Cmin, Cavg, AUC0-t, AUC0-24, AUC0-∞, and Cmax). For CSF, PK parameters (Cmax, Tmax, t1/2, AUC0-t, AUC0-24, Cmin, Cavg, CL/F, Vss/F) was listed by subject and summarized by cohort. Ratios of CSF: plasma concentration at each time point was listed by subject and summarized by study cohort.
Forty-one healthy adult male volunteers aged 18 to 45 with body mass indexes (BMI)≥18 to ≤30 Kg/m^2 and total body weight >50 kg (110 lb) were screened in order to enroll 19 subjects with an average age of 34.2 years (range 21.5-45.6 years) into this study Six participants were randomly assigned to the 48 and 192 mg cohorts, and seven participants were assigned to the 384 mg cohort. After an overnight fast, participants received once daily doses of vodobatinib as capsules for 7 days. Serial PK blood samples to measure vodobatinib plasma concentrations were collected at pre-dose and at 0.25, 0.5, 1, 1.5, 2, 2.5, 3, 4, 6, 8, 12, 16 and 24 h post-dose after the first dose on Day 1 and the last dose on day 7. Additional PK samples prior to the morning doses were taken on Days 3-6. On the morning of Day 7, prior to dosing, an indwelling intrathecal catheter was inserted in the lumbar region (L3-L5). Serial CSF samples were collected through the catheter connected via peristaltic pump to a fraction collector. At each designated CSF collection time point, 8 mL of CSF was collected at a flow rate of 0.5 mL/min over a 16-min period at pre-dose, and 0.5, 1.0, 1.5, 2, 2.5, 3, 4, 6, 8, 12 and 24 h post-dose. The first 2 mL of CSF was discarded, and the remaining 6 mL was used for the vodobatinib assay. The occurrence of treatment-emergent adverse events (TEAEs) and serious AEs (SAEs) reported through the completion of study were collected. Clinical laboratory parameters, vital signs and physical examination data and electrocardiogram (ECG) were collected and evaluated relative to baseline values.

Abl (F317I) = Abl (F317I) (Homo sapiens, UniProt P00519, F317I); assay: Biochemical kinase assay, mutant Abl
Source text: (§1) Conventional biochemical kinase assays, using radioactivity and fluorescence as readouts, were used to derive half maximal-inhibitory concentrations (IC50) values.

Abl (M351T) = Abl (M351T) (Homo sapiens, UniProt P00519, M351T); assay: Biochemical kinase assay, mutant Abl
Source text: as §1

Abl (Y253F) = Abl (Y253F) (Homo sapiens, UniProt P00519, Y253F); assay: Biochemical kinase assay, mutant Abl
Source text: as §1

Abl (H396P) = Abl (H396P) (Homo sapiens, UniProt P00519, H396P); assay: Biochemical kinase assay, mutant Abl
Source text: as §1

Abl (F317L) = Abl (F317L) (Homo sapiens, UniProt P00519, F317L); assay: Biochemical kinase assay, mutant Abl
Source text: as §1

Abl (Q252H) = Abl (Q252H) (Homo sapiens, UniProt P00519, Q252H); assay: Biochemical kinase assay, mutant Abl
Source text: as §1

Abl (E255K) = Abl (E255K) (Homo sapiens, UniProt P00519, E255K); assay: Biochemical kinase assay, mutant Abl
Source text: as §1

[2] = 48 mg, Day 7, Healthy Volunteers
[3] = 192 mg, Day 7, Healthy Volunteers
[4] = 384 mg, Day 7, Healthy Volunteers

Structure (SMILES): Cc1ccc(C(=O)NNC(=O)c2c(C)cccc2Cl)cc1C#Cc1cnc2ccccc2c1 [N′-(2-chloro-6-methylbenzoyl)-4-methyl-3-[2-(3-quinolyl)ethynyl]-benzohydrazide]
- CSF AUC0-24 ([1]; 48 mg, Day 7): 0.0183 µM·h
- CSF AUC0-24 AM ([1]; 48 mg): 10.0 ng·h/mL
- CSF AUC0-24 GM ([1]; 48 mg): 8.9 ng·h/mL
- CSF AUC0-24 Median ([1]; 48 mg): 10.1 ng·h/mL
- CSF Cmax AM ([1]; 48 mg): 0.8 ng/mL
- CSF Cmax GM ([1]; 48 mg): 0.7 ng/mL
- CSF Cmax Median ([1]; 48 mg): 0.8 ng/mL
- CSF AUC0-24 [1, 2]: 10.0 ng·h/mL
- Cavg, CSF [1, 2]: (0.9 nM)
- Cmax, CSF [1, 2]: (1.8 nM)
- Cmax, CSF ([1]; 48 mg, Day 7, Healthy Volunteers, Table 11A): 0.8 ng/mL
- Cmax, CSF/IC50 [1, 2]: 2.0
- Cavg, CSF ([1]; 48 mg, Day 7, Healthy Volunteers, estimated as AUC(0-24)/24): 0.42 ng/mL
- CSF concentrations at 2-3 h ([1]; 48 mg, healthy subjects): 0.5 to 0.7 ng/mL
- CSF AUC0-24 ([1]; 192 mg, Day 7): 0.1304 µM·h
- CSF AUC0-24 AM ([1]; 192 mg): 74.5 ng·h/mL
- CSF AUC0-24 GM ([1]; 192 mg): 59.2 ng·h/mL
- CSF AUC0-24 Median ([1]; 192 mg): 64.5 ng·h/mL
- CSF Cmax AM ([1]; 192 mg): 5.2 ng/mL
- CSF Cmax GM ([1]; 192 mg): 4.6 ng/mL
- CSF Cmax Median ([1]; 192 mg): 5.2 ng/mL
- CSF AUC0-24 [1, 3]: 74.5 ng·h/mL
- Cavg, CSF [1, 3]: (6.8 nM)
- Cmax, CSF [1, 3]: (11.5 nM)
- Cmax, CSF ([1]; 192 mg, Day 7, Healthy Volunteers, Table 11A): 5.2 ng/mL
- Cmax, CSF/IC50 [1, 3]: 13
- Cavg, CSF ([1]; 192 mg, Day 7, Healthy Volunteers, estimated as AUC(0-24)/24): 3.3 ng/mL
- CSF AUC0-24 ([1]; 384 mg, Day 7): 0.1201 µM·h
- CSF AUC0-24 AM ([1]; 384 mg): 58.7 ng·h/mL
- CSF AUC0-24 GM ([1]; 384 mg): 54.5 ng·h/mL
- CSF AUC0-24 Median ([1]; 384 mg): 60.0 ng·h/mL
- CSF Cmax AM ([1]; 384 mg): 5.5 ng/mL
- CSF Cmax GM ([1]; 384 mg): 5.4 ng/mL
- CSF Cmax Median ([1]; 384 mg): 5.1 ng/mL
- CSF AUC0-24 [1, 4]: 58.7 ng·h/mL
- Cavg, CSF [1, 4]: (5.3 nM)
- Cmax, CSF [1, 4]: (12.3 nM)
- Cmax, CSF ([1]; 384 mg, Day 7, Healthy Volunteers, Table 11A): 5.5 ng/mL
- Cmax, CSF/IC50 [1, 4]: 14
- Cavg, CSF ([1]; 384 mg, Day 7, Healthy Volunteers, estimated as AUC(0-24)/24): 2.4 ng/mL
- quantifiable CSF concentrations ([1]; Day 7, 3 dose cohorts): observed in all subjects
- Tmax ([1]; 48 mg, read-out: CSF Tmax Median): 3 h
- Tmax ([1]; 48 mg, read-out: CSF Tmax Min, Max): 3 to 6.02 h
- Tmax ([1]; 192 mg, read-out: CSF Tmax Median): 6 h
- Tmax ([1]; 192 mg, read-out: CSF Tmax Min, Max): 2.03 to 6.01 h
- Tmax ([1]; 384 mg, read-out: CSF Tmax Median): 5 h
- Tmax ([1]; 384 mg, read-out: CSF Tmax Min, Max): 2.5 to 8.01 h
- ratio of concentration in CSF to IC50 of c-Abl inhibition ([1]; therapeutically effective amount): not less than 1
- inhibition (Abl (F317I)): potently inhibit
- pIC50 (Abl (M351T)): 9.10
- pIC50 (Abl (Y253F)): 9.00
- pIC50 (Abl (H396P)): 9.30
- inhibition (Abl (F317L)): potently inhibit
- pIC50 (Abl (Q252H)): 9.10
- inhibition (Abl (E255K)): potently inhibit
